# Experimental data taken from a melting point compilation (Tetko et al.; mined from patent text by program, amines drawn as free bases though some values may be those of a salt).
row,SMILES,melting point [°C]
1,Oc1nc2ccc3cn[nH]c3c2nc1O,> 300
2,NCCc1c[nH]c2ccc(Cc3nnn(Cc4ccccc4)n3)cc12,181 to 183
3,CC(C)C(=O)NCc1cccc2c1C(=O)N(C1CCC(=O)NC1=O)C2=O (stereo unspecified),218 to 220
4,C[C@H](OC(=O)c1ccccc1)[C@@H](O)[C@@H](CO)OCc1ccccc1Cl,80 to 83
5,COC(=O)CCC(=O)c1ccc(N)cc1,160 to 162
6,CCCn1c(SC)nc2ccsc2c1=O,142 to 144
7,COc1c(Cl)ccc(-c2nc(C(=O)OC(C)C)cc(Cl)c2Cl)c1F,124 to 128
8,O=C(NCc1ccccc1)c1ccccc1-c1ccccc1CNS(=O)(=O)c1cccc(F)c1,147
9,COc1cccc(NC(=O)OC2CN3CCC2CC3)c1 (stereo unspecified),130 to 132
10,N#Cc1ccc(Nn2cnnc2)cc1,200 to 204
11,COC(=O)c1ccc(CNS(C)(=O)=O)cc1S(=O)(=O)Cl,93 to 94
12,CC(C)(C)OC(=O)N1CCN(Cc2ccc(Cl)c(Cl)c2)CC1,75 to 76
13,Cc1cccc(-c2cccc3c2OC(CN)C3)c1C (stereo unspecified),> 225
14,CS(=O)(=O)Oc1ccc(O)cc1,82 to 84
15,CC(CO)Nc1c(F)cc2c(=O)c(C(=O)O)cn(-c3cc(N)c(F)cc3F)c2c1Cl (stereo unspecified),153 to 158
16,CCS(=O)(=O)N(C)[C@@H]1c2cc(OCc3ccccc3)ccc2OC(C)(C)[C@H]1O,165 to 167
17,COc1ccccc1N1CCN(CCc2ccc3[nH]c(=O)oc3c2)CC1,182 to 184
18,Fc1ccc(COc2ccc(CS)cc2)cc1,77 to 80
19,CCOC(=O)C1=C(C)NC(C)=C(C(=O)OCC)C1c1cc2cnccc2s1,204 to 205
20,COC(=O)c1cnn(-c2ccc(Cl)cc2Cl)c1N,143 to 145
21,CC(C)(C)OC(=O)Nn1ccc2ccccc21,112 to 116
22,CNc1nc(-c2cccc(Oc3ccccc3)c2)c2cc(OC)c(OC)cc2n1,157 to 159
23,O=c1ccc2cc(-c3cccnc3)ccc2[nH]1,217 to 218

row,SMILES,melting point [°C]
1,Cc1ccc(Nc2c(C)cc(Cl)cc2Cl)c(CC(=O)N(C)C)c1,119 to 124
2,OCC1(c2ccc(Cl)cc2)CC1c1ccc(-c2ccccc2)cc1 (stereo unspecified),168 to 170
3,COc1ccc(C2=NC(NC(=O)CCc3ccc(Cl)cc3Cl)C(=O)N(C)c3ccccc32)cc1 (stereo unspecified),188 to 189
4,COC(=O)CC[C@@H](NC(=O)[C@H](CO)NC(=O)OC(C)(C)C)C(=O)OC,90 to 92
5,CCOC(=O)c1c(N)[nH]c2cc(OC)c(OC)cc12,164 to 166
6,CC(C)(C)Nc1cc(Cl)nc(N2CCCC2)n1,148 to 150
7,Cn1cc(O)c(=O)c2cccc(F)c21,248
8,CC(=O)OC1CSC(Oc2cncc(Cl)c2)C(OC(C)=O)C1OC(C)=O (stereo unspecified),160
9,CCOC(=O)c1cccn2c(C#N)c(-c3ccccc3)nc12,87 to 89
10,CC(C)(C)Sc1cccc(CCC(O)c2ccccc2)c1NC(=O)CC1c2ccccc2Oc2ccccc21 (stereo unspecified),145 to 147
11,O=c1cc(-c2ccc3nccnc3c2)oc2ncccc12,272 to 275
12,C/C(=N\O)C(=O)c1ccc(F)cc1F,99 to 101
13,COc1cc2c(cc1Br)CC=C2CCNC(C)=O,146 to 148
14,CC(C(=O)CCc1ccc(Cl)cc1)n1cncn1 (stereo unspecified),77 to 78
15,CC(C)(C)[Si](C)(C)Oc1ccccc1-c1cc(-c2ccc([N+](=O)[O-])cc2)c(C#N)c(N)n1,168 to 169
16,Cc1ccc(Nc2c(N)cc(C(=O)O)cc2S(N)(=O)=O)c(C)c1,241 to 242
17,C#Cc1ccc(C23OCC(c4ccc(F)c(F)c4)(CO2)CO3)cc1,204 to 205
18,COc1ccc(-n2c(-c3sc(Nc4ccccc4)nc3-c3ccccc3)nc3ccccc3c2=O)cc1,135 to 137
19,O=S(=O)(c1ccccc1)n1c2cc(O)c(O)cc2c2ccc(O)c(O)c21,176 to 178
20,COc1ccc(F)c2c1CCC(C=O)C2=O (stereo unspecified),66 to 68
21,COC(=O)C1=C(C)NC(C)=C(C(=O)OC(C)C)C1c1ccccc1[N+](=O)[O-] (stereo unspecified),174
22,N#CCN1CCN(c2cccccc2=O)CC1,133 to 135
23,O=S(=O)(NCC(O)(Cn1cncn1)c1ccc(Cl)cc1Cl)c1cc(Cl)ccc1Cl (stereo unspecified),173 to 174

row,SMILES,melting point [°C]
1,CC(=O)[NH+]([O-])C[C@@H]1CN(c2ccc(N3CCN(S(=O)(=O)CC#N)CC3)c(F)c2)C(=O)O1 (stereo partly specified),153 to 156
2,O=S(=O)(c1nc[nH]n1)C(F)(F)Br,176 to 177
3,Nc1ncc(-c2ccccc2)c(N)n1,162 to 164
4,CN(CC(CCOS(C)(=O)=O)c1ccc(Cl)c(Cl)c1)C(=O)c1ccccc1 (stereo unspecified),100 to 102
5,COc1nc(C)cc(-n2cncn2)n1,98 to 98.5
6,CCCCCCc1c(Cl)nc(N=CN(C)C)nc1Cl,59 to 60
7,COc1cc(C)ccc1S(=O)(=O)NC(=O)C(c1cc(OC)c2c(c1)OCO2)c1cn(C)c2cc(C=O)ccc12 (stereo unspecified),233
8,O=C(Nc1ccccc1)c1cccc(Oc2ccccc2)c1,111 to 112
9,O=C1C=CC2=C3OC=CC=C3C=CC2O1 (stereo unspecified),96 to 98
10,N#CC1CN1C(=O)CN1C(=O)c2ccccc2C1=O (stereo unspecified),126 to 128
11,CN(C)Cc1ccnc(CSCCNc2ncc(Cc3ccn(C)c(=O)c3)c(=O)[nH]2)c1,137 to 139
12,CCC(CC)Nc1n[nH]c(=O)c2c1ccn2-c1c(C)cc(C)cc1C,183 to 185
13,O=C(OCCn1ccnc1)C(O)c1ccccc1 (stereo unspecified),131 to 132
14,COc1ncnc(OC)c1NC(=O)c1cccs1,198 to 200
15,N#C/C=C/c1ccc(Cl)cc1Cl,156
16,O=c1ccc(S(=O)(=O)c2ccc(-c3ccccc3)cc2)n[nH]1,219 to 220
17,CC(C)(C)OC(=O)NC1C(=O)N(OCc2ccccc2)C12CCC2 (stereo unspecified),156 to 157
18,CC(C)C[C@H](NC(=O)[C@H](CS)C(F)(F)F)c1nnn[nH]1,183 to 184
19,COc1ccc(Oc2ccc3c(c2)SC(c2ccc(OC)cc2)C(O)C(=O)N3)cc1 (stereo unspecified),213 to 214
20,CNC(=O)Oc1ccccc1OC,90 to 92
21,C=CN(C(=O)CCl)c1c(CC)cccc1CC,45 to 47
22,Clc1ccc(-c2noc(CCC#Cc3ccccn3)n2)cc1,75 to 77

# More lines, now with the values ahead:
row,melting point [°C],SMILES
1,167 to 168,CCOC(=O)c1ccc(-c2ccc(-c3ccc(Cl)cc3)s2)cc1
2,282,Cc1cc(-c2ccc(Cl)c(Cl)c2)nc(-n2cnc(-c3ccc(S(N)(=O)=O)cc3)c2)n1
3,149 to 150,CCn1cncc1/C=C/c1cn(-c2ccccc2)nc1OCc1ccc(OCc2nc(-c3ccc(CC(=O)O)cc3)oc2C)c(OC)c1
4,129 to 131,COC(=O)c1ccc(OCCCCCCc2ccc3cc(OCc4ccccc4)c(OCc4ccccc4)cc3c2)cc1O
5,76 to 78,COC(=O)C1(C(F)CCCCOc2ccc(Cl)cc2)CO1 (stereo unspecified)
6,268 to 269,O=C(O)C1=Cc2cc(C(=O)c3ccc(Cl)cc3)ccc2OC1C(F)(F)F (stereo unspecified)
7,130 to 132,O=C(NCC(F)(F)F)C1(CCCCc2ccc(NS(=O)(=O)c3ccccc3)cc2)c2ccccc2-c2ccccc21
8,86 to 90,COCCN1CC(C(=O)OC)N(S(=O)(=O)c2ccc(OC)cc2)Cc2ccccc21 (stereo unspecified)
9,240 to 242,COCC(O)Cc1ccc(-c2ccc3cc(C(=O)O)ccc3c2)cc1C12CC3CC(CC(C3)C1)C2 (stereo unspecified)
10,219 to 220,CCOC(=O)c1ccc(NC(=O)NC2CN(C3CCCCC3)c3ccccc3N(CC(=O)c3cccs3)C2=O)cc1 (stereo unspecified)
11,150 to 152,COC[C@H]1CCCN1C(=O)c1cc(-c2ccccc2)c(=O)n2c1-c1sccc1C2
12,199 to 200,O=C1Nc2ccccc2C(c2ccccc2)N1C1CCN(Cc2ccccc2)CC1 (stereo unspecified)
13,108 to 109,CC(C)c1ccc2nc3ccc(C(=O)OCCCc4cccnc4)cn3c(=O)c2c1
14,161,COc1cccc(CCN2C(=O)c3c(F)c(F)c(F)c(F)c3C2(O)c2ccc(F)cc2)c1 (stereo unspecified)
15,130 to 131,CCOc1cc(CO)ccc1OCc1nc(-c2ccccc2)oc1C
16,98 to 100,O=C(C=CC1CCCCC1)NCCc1cccc(OCc2ccccc2)c1
17,255,CCCCc1cn(Cc2ccc(-c3ccccc3C(=O)O)cc2)c2c(c1=O)CC(C)CC2 (stereo unspecified)

row,melting point [°C],SMILES
1,146,COc1ccc2c(CCN3CCCCC3=O)c[nH]c2c1
2,130,Nc1ccc(N2CCN(Cc3ncc(-c4ccccc4)o3)CC2)cc1
3,191 to 192,Nc1c(Cl)cc(C(O)CNCCCCCCOCCCc2cncc(CC(=O)O)c2)cc1Cl (stereo unspecified)
4,187 to 189,COc1ccc(COc2ccc3[nH]c4c([N+](=O)[O-])ccc(Cl)c4c(=O)c3c2)cc1
5,127 to 129,COc1ccc2c(-c3c(-c4ccccn4)nn4c3CCCCC4)ccnc2c1
6,148 to 151,CCCNC(=S)NC1=Nc2ccc(OC(F)(F)F)cc2CS1
7,141,FC(F)(F)c1ccc(-c2cc(C(F)(F)F)n3cnc(I)c3n2)cc1
8,166 to 168,Cn1cc(-c2ccc(Cl)c(C(F)(F)F)c2)c(=O)c(-c2cccs2)c1
9,107 to 109,COC(C#N)Cc1ccc2oc(Cc3nc(-c4ccccc4)oc3C)cc2c1 (stereo unspecified)
10,157 to 159,O=C(NCCCCN1CCC(c2ccc3c(c2OCCO)CCCC3)CC1)c1sc(-c2ccc(C(F)(F)F)cc2)nc1CO
11,155 to 157,CCCCCCCCCCNC(=O)c1ccc(N(CC(=O)O)CC(=O)O)cc1
12,185 to 186,COC(=O)C1(c2c(F)cccc2F)Nc2ccccc2N1Cc1c(F)cccc1F (stereo unspecified)
13,173 to 174,CC(C)NCC(O)COc1ccc(-c2nc(C(F)(F)F)c[nH]2)cc1 (stereo unspecified)
14,111 to 113,Cc1c(NC(=O)c2ccc(OC[C@@H]3CCCO3)cc2)ccc2cc(CNCCOC(C)C)cnc12
15,139 to 140,CCC(=O)NCCC1c2cc(OC)ccc2-c2ccc(OC)cc21
16,87 to 88,CC(C)c1nn(-c2ccc(C(F)(F)F)cn2)cc1CCCO
